Measurements reported in ChEMBL document CHEMBL1150603, “Ecteinascidins 770 and 786 from the Thai tunicate Ecteinascidia thurstoni” (J Nat Prod, 2002).
In brackets after ≈: the same amount, converted by molar mass.

Key:
[1] = Cytotoxicity against breast cancer cells; format: functional, cell-based; settings: Cancer cell lines
KB = assay: Cytotoxicity against human KB cells; format: functional, cell-based
[2] = tested on: Mycobacterium tuberculosis; assay: Antitubercular activity against Mycobacterium tuberculosis H37Ra; format: functional

SMILES | IC50 [1] [nM] | IC50 (KB) [nM] | MIC [2] [µM]
COc1cc2c(cc1O)CCN[C@]21CS[C@@H]2c3c(OC(C)=O)c(C)c4c(c3[C@H](COC1=O)N1[C@@H]2[C@H]2c3c(cc(C)c(OC)c3O)C[C@@H]([C@@H]1C#N)N2C)OCO4 [ECTEINASCIDIN 770] | 2.5 | 0.034 | 0.13 (≈ 0.1 µg/mL)
COc1cc2c(cc1O)CCN[C@]21C[S+]([O-])[C@@H]2c3c(OC(C)=O)c(C)c4c(c3[C@H](COC1=O)N1[C@@H]2[C@@H]2c3c(cc(C)c(OC)c3O)C[C@@H]([C@@H]1C#N)N2C)OCO4 (stereo partly specified) [ECTEINASCIDIN 786] | 7.6 | 0.15 | 2 (≈ 1.57 µg/mL)
